Patent US20240425499A1, “TYRO3 INHIBITORS” (HALIA THERAPEUTICS, INC., priority 2021, published 2024)

What follows are compounds tested against recombinant human TYRO3 (Homo sapiens (Human), UniProt Q06418) (assay: TYRO3 enzymatic assay (radiometric [32P]-ATP, Poly(Glu,Tyr) substrate)). Conditions: recombinant human TYRO3, [32P]-ATP.
Format: biochemical
Experimental: Poly(Glu, Tyr) sodium salt (Glu:Tyr (4:1), quality level 200, molecular weight 5,000-20,000, obtained from Sigma Aldrich, catalogue #P7244, assay concentration 0.20 mg/mL) and recombinant human TYRO3 (obtained from ThermoFisher Scientific, catalogue #PV3828, assay concentration 2 nM) were mixed in assay buffer (20 mM Hepes pH 7.5, 10 mM MgCl2, 1 mM EGTA, 0.02% Brij35, 0.02 mg/ml BSA, 0.1 mM Na3VO4, 2 mM DTT, 1% DMSO, with added MnCl2 at a final concentration of 2 mM). Compounds of interest (in DMSO, serial 3-fold dilution from 10 μM to 0.5 nM) or control (1% DMSO) were dispensed into the kinase reaction mixture by Acoustic technology (Echo550; nanoliter range). After incubation at room temperature for 20 minutes, the kinase reaction was initiated by addition of [^32P]-ATP (Specific activity 10 μCi/μl) and the mixture was incubated at room temperature for 2 hours. The reaction was then stopped by spotting the reaction mixture on strips of phosphocellulose P81 paper. Following washing, the radioactivity of the P81 paper was measured and kinase activity data were expressed as the percent remaining kinase activity in test samples compared to vehicle (dimethyl sulfoxide) reactions. IC50 values and curve fits were obtained using Prism (GraphPad Software).

Chain of recombinant human TYRO3 (Q06418 41-890): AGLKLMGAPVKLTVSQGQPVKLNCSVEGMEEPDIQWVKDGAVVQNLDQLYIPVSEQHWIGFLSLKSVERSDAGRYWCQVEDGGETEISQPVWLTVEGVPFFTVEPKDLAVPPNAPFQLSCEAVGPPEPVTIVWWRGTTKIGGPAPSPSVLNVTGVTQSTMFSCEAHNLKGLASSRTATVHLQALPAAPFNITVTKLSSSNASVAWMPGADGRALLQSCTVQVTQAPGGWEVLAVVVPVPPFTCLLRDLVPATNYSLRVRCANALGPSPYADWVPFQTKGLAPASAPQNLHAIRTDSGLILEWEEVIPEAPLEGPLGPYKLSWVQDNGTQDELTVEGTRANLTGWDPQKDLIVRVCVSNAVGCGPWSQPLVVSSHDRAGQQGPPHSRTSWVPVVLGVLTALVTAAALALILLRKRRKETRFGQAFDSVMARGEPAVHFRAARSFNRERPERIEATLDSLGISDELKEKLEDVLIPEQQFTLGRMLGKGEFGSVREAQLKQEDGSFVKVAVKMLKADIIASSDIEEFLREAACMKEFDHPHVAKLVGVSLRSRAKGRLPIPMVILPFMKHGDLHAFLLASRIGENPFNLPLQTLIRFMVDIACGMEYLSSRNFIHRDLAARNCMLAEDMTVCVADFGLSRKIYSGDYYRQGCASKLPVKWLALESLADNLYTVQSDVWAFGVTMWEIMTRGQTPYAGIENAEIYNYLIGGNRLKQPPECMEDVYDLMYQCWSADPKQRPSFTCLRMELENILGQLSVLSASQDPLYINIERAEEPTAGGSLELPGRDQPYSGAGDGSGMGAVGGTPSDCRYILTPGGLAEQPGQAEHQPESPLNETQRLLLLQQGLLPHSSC

IC50 | SMILES
51 to 150 nM | COc1ccc(-c2c[nH]c3ncc(-c4ccc(CN5CCC(C)(O)CC5)cc4)cc23)cn1 [compound 71, 1-(4-(3-(6-methoxypyridin-3-yl)-1H-pyrrolo[2,3-b]pyridin-5-yl)benzyl)-4-methylpiperidin-4-ol]
151 to 500 nM | COc1ccc(-c2c[nH]c3ncc(-c4ccc(CN5CCC(N(C)C)CC5)cc4)cc23)cn1 [compound 74, 1-(4-(3-(6-methoxypyridin-3-yl)-1H-pyrrolo[2,3-b]pyridin-5-yl)benzyl)-N,N-dimethylpiperidin-4-amine]
51 to 150 nM | CCN1CCc2cc(-c3c[nH]c4ncc(-c5ccc(CN6CCCC(O)C6)cc5)cc34)ccc2C1 (centres unmarked) [compound 81, 1-(4-(3-(2-ethyl-1,2,3,4-tetrahydroisoquinolin-6-yl)-1H-pyrrolo[2,3-b]pyridin-5-yl)benzyl)piperidin-3-ol]
51 to 150 nM | CN1CCc2cc(-c3c[nH]c4ncc(-c5ccc(CN6CCCC(CO)C6)cc5)cc34)ccc2C1 (centres unmarked) [compound 82, (1-(4-(3-(2-methyl-1,2,3,4-tetrahydroisoquinolin-6-yl)-1H-pyrrolo[2,3-b]pyridin-5-yl)benzyl)piperidin-3-yl)methanol]

Continued, compound first:

SMILES | IC50
COc1ccc(-c2c[nH]c3ncc(-c4ccc(CN5CCCC(OC(C)=O)C5)cc4)cc23)cn1 (centres unmarked) [compound 69, 1-(4-(3-(6-methoxypyridin-3-yl)-1H-pyrrolo[2,3-b]pyridin-5-yl)benzyl)piperidin-3-yl acetate] | 151 to 500 nM
COCC1CCCN(Cc2ccc(-c3cnc4[nH]cc(-c5ccc(OC)nc5)c4c3)cc2)C1 (centres unmarked) [compound 70, 5-(4-((3-(methoxymethyl)piperidin-1-yl)methyl)phenyl)-3-(6-methoxypyridin-3-yl)-1H-pyrrolo[2,3-b]pyridine] | 51 to 150 nM
CNC1CCN(Cc2ccc(-c3cnc4[nH]cc(-c5ccc(OC)nc5)c4c3)cc2)CC1 [compound 73] | 151 to 500 nM
CC1(O)CCN(c2ccc(-c3cnc4[nH]cc(-c5ccc6[nH]ccc6c5)c4c3)cc2)CC1 [compound 77, 1-(4-(3-(1H-indol-5-yl)-1H-pyrrolo[2,3-b]pyridin-5-yl)phenyl)-4-methylpiperidin-4-ol] | 151 to 500 nM
